Reference: ChEMBL document CHEMBL4364349, “In vitro screening for compounds from Hypericum longistylum with anti-pulmonary fibrosis activity” (Bioorg Med Chem Lett, 2019)

Tests used:
Assay type in all cases: cell-based
[1] = Cytotoxicity against mouse Mlg cells assessed as effect on cell viability up to 80 uM after 24 to 48 hrs by MTT assay
[2] = biological target: Transforming growth factor beta-1 proprotein/Mothers against decapentaplegic homolog 3 (Mus musculus) (UniProt P04202+Q8BUN5); assay: Inhibition of TGF beta1/Smad3 signaling in mouse NIH/3T3 cells harboring CAGA promoter at 10 uM incubated for 18 hrs in presence of TGF-beta1 by luciferase reporter gene assay relative to control
Sequence of Transforming growth factor beta-1 proprotein/Mothers against decapentaplegic homolog 3 (Mus musculus) (P04202 279-390 limits assumed): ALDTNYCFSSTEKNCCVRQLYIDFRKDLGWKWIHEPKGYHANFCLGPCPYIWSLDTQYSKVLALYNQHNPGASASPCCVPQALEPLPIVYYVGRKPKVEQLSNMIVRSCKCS
Sequence of Transforming growth factor beta-1 proprotein/Mothers against decapentaplegic homolog 3 (Mus musculus) (Q8BUN5 2-425 partner limits assumed): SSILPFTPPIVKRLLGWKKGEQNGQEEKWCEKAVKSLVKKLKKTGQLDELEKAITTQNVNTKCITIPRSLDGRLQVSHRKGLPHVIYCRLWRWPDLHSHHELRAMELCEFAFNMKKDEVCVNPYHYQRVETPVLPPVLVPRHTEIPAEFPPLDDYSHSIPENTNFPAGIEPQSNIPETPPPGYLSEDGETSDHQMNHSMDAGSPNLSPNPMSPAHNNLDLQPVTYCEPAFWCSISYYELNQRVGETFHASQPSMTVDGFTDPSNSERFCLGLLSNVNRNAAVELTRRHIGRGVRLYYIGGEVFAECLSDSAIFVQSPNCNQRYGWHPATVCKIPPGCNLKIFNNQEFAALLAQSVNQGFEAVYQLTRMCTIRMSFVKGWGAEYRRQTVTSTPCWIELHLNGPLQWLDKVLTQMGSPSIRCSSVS

[3] = biological target: Transforming growth factor beta-1 proprotein/Mothers against decapentaplegic homolog 3 (Mus musculus, UniProt P04202+Q8BUN5); assay: Inhibition of TGF beta1/Smad3 signaling in mouse NIH/3T3 cells harboring CAGA promoter incubated for 18 hrs in presence of TGF-beta1 by luciferase reporter gene assay
Sequence of Transforming growth factor beta-1 proprotein/Mothers against decapentaplegic homolog 3 (P04202 279-390 limits assumed): as the sequence (P04202 279-390 limits assumed) above
Sequence of Transforming growth factor beta-1 proprotein/Mothers against decapentaplegic homolog 3 (Q8BUN5 2-425 limits assumed): as the sequence (Q8BUN5 2-425 partner limits assumed) above

inhibition [2] | IC50 [3] | SMILES | Activity [1]
 |  | CC(C)[C@@H]1CC[C@@]2(C)[C@H](O)CCC(CO)=C[C@@H]12 | Non-Toxic
 |  | CC(C)[C@H]1CC[C@@]2(C)[C@@H]1[C@@H]1O[C@]1(CO)CC[C@@H]2O [SANICULAMOID B] | Non-Toxic
 |  | CO[C@@]12CC[C@@H](O)[C@@](C)(CC[C@@H]3[C@@H]1CC3(C)C)C2 | Non-Toxic
 |  | C=C1CCC(=O)[C@]2(C)CC[C@@H](C(C)C)[C@@H]2C1O (stereo not given in full) | Non-Toxic
 |  | CC(=O)[C@@H]1CC[C@H]2[C@H]1[C@@H](C(C)C)CC[C@]2(C)O | Non-Toxic
93.1% | 380 nM | COc1ccc(C2CC(=O)c3c(O)cc(O)c(C)c3O2)cc1 (stereo not given) | Non-Toxic
 |  | CC(C)[C@@H]1CC[C@@]2(C)[C@H](O)CCC(C=O)=C[C@H]12 | Non-Toxic
67.9% | 3670 nM | CC1(C)C[C@H]2[C@H]1CC[C@@]1(C)C[C@]2(O)CC[C@@H]1O | Non-Toxic
 |  | C=C1CC[C@@H](O)[C@]2(C)CC[C@H](C(C)C)[C@@H](O)[C@H]12 | Non-Toxic
 |  | C=C1CC[C@@H](O)[C@]2(C)CC[C@@H](C(C)C)[C@H](O)[C@@H]12 | Non-Toxic
 |  | C=C[C@](C)(O)CC[C@H]1C(=C)C[C@H](O)[C@H]2C(C)(C)CCC[C@]12C | Non-Toxic
 |  | CC(C)[C@@H]1CC[C@@]2(C)[C@H](O)CC[C@@]3(O)CO[C@@H]1[C@@H]32 | Non-Toxic
 |  | CC(C)[C@@H]1CC[C@@]2(C)C(=O)CCC(C=O)=C[C@@H]12 | Non-Toxic
 | 70.5 nM | Cc1cccc(-c2[nH]c(C(C)(C)C)nc2-c2ccc3nccnc3c2)n1 | Toxic
 | 1430 nM | Cc1ccc(=O)n(-c2ccccc2)c1 [PIRFENIDONE] | 
